ChEMBL document CHEMBL1201862, “PubChem BioAssay data set” (2004)
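Where inhibition never reached the appropriate level, the endpoint shown equals the highest concentration tested. Otherwise, values were interpolated linearly from a five-concentration, 48-hour dose response in 96-well plates. Here, GI50 denotes the concentration required for 50% inhibition of growth.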 Calls of active or inactive are those of the source. Cut-off read from the data, not from the text of the source: active = GI50 up to about 1.1 µM and inactive = higher.

Key:
Experiment in all cases: NCI tumour cell line growth inhibition, 48 h
[1] = test system: NCI-H23
[2] = test system: HCT-15
[3] = test system: SN12C
[4] = test system: HT-29
[5] = test system: Malme-3M
[6] = test system: SK-OV-3
[7] = test system: HOP-92
[8] = test system: UACC-62
[9] = test system: ACHN
[10] = test system: EKVX
[11] = test system: OVCAR-5
[12] = test system: NCI-H460
[13] = test system: PC-3
[14] = test system: T47D
[15] = test system: IGROV-1
[16] = test system: RXF 393
[17] = test system: SNB-75
[18] = test system: SK-MEL-5
[19] = test system: HCC 2998
[20] = test system: COLO 205
[21] = test system: SNB-19
[22] = test system: CCRF-CEM
[23] = test system: SK-MEL-28
[24] = test system: NCI-H226
[25] = test system: NCI-H522
[26] = test system: MDA-MB-231
[27] = test system: M14
[28] = test system: SF-539
[29] = test system: SW-620
[30] = test system: UO-31
[31] = test system: MOLT-4
[32] = test system: TK-10
[33] = test system: HCT-116
[34] = test system: HOP-62
[35] = test system: OVCAR-4
[36] = test system: CAKI-1
[37] = test system: OVCAR-3
[38] = test system: NCI/ADR-RES
[39] = test system: K562
[40] = test system: OVCAR-8
[41] = test system: DU-145
[42] = test system: SR
[43] = test system: MCF7
[44] = test system: MDA-MB-435
[45] = test system: MDA-N
[46] = test system: SF-295
[47] = test system: A498
[48] = test system: A549
[49] = test system: UACC-257
[50] = test system: KM12
[51] = test system: U-251
[52] = test system: SK-MEL-2
[53] = test system: 786-0
[54] = test system: SF-268
[55] = test system: HL-60
[56] = test system: LOX IMVI
[57] = test system: RPMI-8226
[58] = test system: Hs-578T

C=CC1CN2CCC1CC2C(O)c1ccnc2ccc(OC)cc12 (configuration not stated)
GI50 [1]: 89.1 µM (inactive)

c1ccc(P2c3ccccc3Nc3ccccc32)cc1
GI50 [2]: > 100 µM
GI50 [3]: 41.1 µM (inactive)
GI50 [4]: 49 µM (inactive)
GI50 [5]: 49.3 µM (inactive)
GI50 [6]: > 100 µM (inactive)
GI50 [7]: 30.1 µM (inactive)
GI50 [8]: 37.8 µM (inactive)
GI50 [9]: 86.5 µM (inactive)
GI50 [10]: 34 µM (inactive)
GI50 [11]: > 100 µM (inactive)
GI50 [12]: 62.1 µM (inactive)
GI50 [13]: 30 µM (inactive)
GI50 [14]: 55.2 µM (inactive)
GI50 [15]: 71 µM (inactive)
GI50 [16]: 29.5 µM (inactive)
GI50 [17]: 11.4 µM (inactive)
GI50 [18]: 30.8 µM (inactive)
GI50 [19]: > 100 µM (inactive)
GI50 [20]: 32.7 µM (inactive)
GI50 [21]: 59 µM (inactive)
GI50 [22]: 23.6 µM (inactive)
GI50 [23]: > 100 µM (inactive)
GI50 [24]: 99.5 µM (inactive)
GI50 [25]: 62.5 µM (inactive)
GI50 [26]: 35.3 µM (inactive)
GI50 [27]: 66.2 µM (inactive)
GI50 [28]: 59.8 µM (inactive)
GI50 [29]: > 100 µM (inactive)
GI50 [30]: > 100 µM (inactive)
GI50 [31]: 24.8 µM (inactive)
GI50 [32]: > 100 µM (inactive)
GI50 [33]: 38.6 µM (inactive)
GI50 [34]: 64.9 µM (inactive)
GI50 [35]: 38.8 µM (inactive)
GI50 [36]: 23.5 µM (inactive)
GI50 [37]: 16.3 µM (inactive)
GI50 [38]: > 100 µM (inactive)
GI50 [39]: 44.1 µM (inactive)
GI50 [40]: > 100 µM (inactive)
GI50 [41]: 78 µM (inactive)
GI50 [42]: 23.2 µM (inactive)
GI50 [43]: 72.1 µM (inactive)
GI50 [44]: > 100 µM (inactive)
GI50 [45]: 91 µM (inactive)
GI50 [46]: 59.7 µM (inactive)
GI50 [47]: 27.1 µM (inactive)
GI50 [48]: 42.5 µM (inactive)
GI50 [49]: 43.1 µM (inactive)
GI50 [50]: 37.2 µM (inactive)
GI50 [51]: 56.1 µM (inactive)
GI50 [52]: 36 µM (inactive)
GI50 [53]: > 100 µM (inactive)
GI50 [54]: 71.6 µM (inactive)
GI50 [55]: 29.1 µM (inactive)
GI50 [1]: 72.9 µM (inactive)
GI50 [56]: 45.8 µM (inactive)

CC(=O)OCc1cccc(O)c1C(=O)CCC=C(C)C
GI50 [2]: > 100 µM
GI50 [3]: > 100 µM (inactive)
GI50 [4]: > 100 µM (inactive)
GI50 [5]: > 100 µM (inactive)
GI50 [6]: > 100 µM (inactive)
GI50 [7]: > 100 µM (inactive)
GI50 [8]: > 100 µM (inactive)
GI50 [9]: > 100 µM (inactive)
GI50 [10]: > 100 µM (inactive)
GI50 [11]: 29.3 µM (inactive)
GI50 [12]: > 100 µM (inactive)
GI50 [13]: > 100 µM (inactive)
GI50 [14]: > 100 µM (inactive)
GI50 [15]: > 100 µM (inactive)
GI50 [16]: > 100 µM (inactive)
GI50 [18]: > 100 µM (inactive)
GI50 [19]: > 100 µM (inactive)
GI50 [20]: > 100 µM (inactive)
GI50 [21]: > 100 µM (inactive)
GI50 [22]: 74.6 µM (inactive)
GI50 [23]: > 100 µM (inactive)
GI50 [24]: > 100 µM (inactive)
GI50 [25]: 27.1 µM (inactive)
GI50 [27]: > 100 µM (inactive)
GI50 [28]: > 100 µM (inactive)
GI50 [29]: > 100 µM (inactive)
GI50 [30]: > 100 µM (inactive)
GI50 [31]: > 100 µM (inactive)
GI50 [32]: > 100 µM (inactive)
GI50 [33]: > 100 µM (inactive)
GI50 [34]: > 100 µM (inactive)
GI50 [35]: > 100 µM (inactive)
GI50 [36]: > 100 µM (inactive)
GI50 [37]: > 100 µM (inactive)
GI50 [38]: > 100 µM (inactive)
GI50 [39]: > 100 µM (inactive)
GI50 [41]: > 100 µM (inactive)
GI50 [42]: > 100 µM (inactive)
GI50 [57]: > 100 µM (inactive)
GI50 [43]: > 100 µM (inactive)
GI50 [58]: > 100 µM (inactive)
GI50 [44]: > 100 µM (inactive)
GI50 [45]: > 100 µM (inactive)
GI50 [46]: 32.7 µM (inactive)
GI50 [47]: > 100 µM (inactive)
GI50 [48]: > 100 µM (inactive)
GI50 [49]: > 100 µM (inactive)
GI50 [50]: > 100 µM (inactive)
GI50 [51]: > 100 µM (inactive)
GI50 [52]: > 100 µM (inactive)
GI50 [53]: > 100 µM (inactive)
GI50 [54]: > 100 µM (inactive)
GI50 [55]: 34.7 µM (inactive)
GI50 [1]: > 100 µM (inactive)
GI50 [56]: 46.9 µM (inactive)
